Data published in article PMC11481179, “Development and Application of Reversible and Irreversible Covalent Probes for Human and Mouse Cathepsin‐K Activity Detection, Revealing Nuclear Activity” (Advanced Science, 2024).

Key:
[1] = biological target: T1, endogenous CTSK in intact U-2 OS cells (Homo sapiens, UniProt P43235); assay: Labeling of endogenous CTSK in intact cells, fluorescent SDS-PAGE; assay type: cell-based
T1 construct: ability to label endogenous CTSK activity in intact cells; endogenous in cells; host or cells: U-2 OS
T1 sequence (P43235 115-329): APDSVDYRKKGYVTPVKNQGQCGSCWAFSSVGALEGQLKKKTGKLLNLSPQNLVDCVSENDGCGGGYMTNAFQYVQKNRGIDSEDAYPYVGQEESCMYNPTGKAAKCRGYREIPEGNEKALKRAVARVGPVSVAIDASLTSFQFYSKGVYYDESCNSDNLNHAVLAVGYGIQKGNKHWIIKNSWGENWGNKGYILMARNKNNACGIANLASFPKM
Protocol: To test probe selectivity and the ability to label endogenous CTSK activity in intact cells, three cell lines were selected: human osteosarcoma MG‐63 and U‐2 OS, and human glioblastoma U‐87 MG; all cell lines express CTSK along with other lysosomal cathepsins.^[ [44] ^] First, the ABPs were incubated with intact U‐2 OS cells for different durations of time, and the probe selectivity toward CTSK was examined, with a pan cathepsin ABP, GB123, used as a control that labels CTS B, K, L, and S in cells. After cell lysis, the probe‐labeled enzymes were resolved and detected by a fluorescent scan of the SDS‐PAGE. […] Specifically, intact MG‐63 cells required a 5 h incubation (Figure 2b,c), while U‐87 MG cells required a 2 h incubation (Figure 2d).
Figure 2 Labeling of endogenous CTSK in intact cells. a) U2‐OS cells were treated with DMSO or 5 µM of the indicated inhibitors in culture medium, for 2 h, then with indicated ABPs [5 µM] in a culture medium for indicated times, followed by cell lysis, SDS‐PAGE separation, and fluorescent scanning of the gel at 635/670 nm. An immunoblot of CTSK of the same gel is presented below. b) Intact MG63 cells were treated with GD32 5 µM in the culture media for indicated times, cell lysates were analyzed as in a. CTSK immunoblot is presented, pro and mature CTSK are indicated by arrows. c) MG63 cells and d) U87MG cells were treated with DMSO, or 5 µM of indicated inhibitors in culture medium for 2 h, followed by incubation with 5 µM of indicated probes for 5 h (GD32 and GD42) and 2 h (GB123), cell lysates were analyzed by fluorescent SDS PAGE as in a. […] In (c) a CTSK immunoblot of a representative MG63 lane on the right. e) Labeling of active mature CTSK by GD32 in A549 and U2‐0S cells in externally adjusted different pH. Cells were incubated with 5 µM GD32 for 24 h in growth media at indicated pHs, prior to the cell lysis, cell lysates were analysed as in a. CTSK immunoblot below. f) A549 cells were incubated with increasing concentrations of GD30 for 2 h at pH = 5, followed by the incubation with 5 µM GD32 for 24 h prior to the cell lysis, cell lysates were analyzed as in a. g) Intact U‐87 MG cells or U‐87 MG cell lysates were treated with 5 µM GD32 for 2 h, the intact cells were then lysed and all lysates were analyzed as in (a). h) Intact or lysates of U‐87MG were treated with GD32 for 2 h then immunoprecipitation was done with an anti‐CTSK antibody. Input (I), immunoprecipitation (IP), and output (O) were separated by a 14% SDS‐PAGE and scanned for fluorescence. The gel was then blotted and reacted with an anti‐cystatin B antibody below. ODN (Odanacatib), GB111 (GB111‐NH2), mCTSK (mature CTSK). […]
deoxycholate). After adding sample buffer, samples were boiled for 10 minutes, and analyzed […]
lysates were analyzed as described above. […]

CTSL = CTSL (Homo sapiens, UniProt P07711); assay: In vitro kinetic evaluation of cathepsin inhibition, fluorescent substrate Z-RR-AMC; assay type: biochemical; conditions: for mode of inhibition: CTSL; for Ki: CTSL 5 nM, pH 6, 37 °C
Protocol: used for TLC. Phosphate Buffer Saline (PBS) was purchased from Biological Industries (pH = […]
7.4) and was used as a buffer system in all experiments if not indicated otherwise. […]
Recombinant human CTSB, CTSK, CTSL, and CTSS were supplied by B. Turk (J.
Stefan Institute).[1] […]
In vitro kinetic evaluation of labeling recombinant cathepsins:
Reactions were monitored for 30 min at 37° C in 96-well black flat-bottom microplates […]
(Greiner, Germany) using Tecan INFINITE M1000 pro plate reader (Tecan, Switzerland), […]
substrates Z-RR-AMC (CTSL) or Z-FR-AMC (CTSS, CTSB and CTSK), and excitation and […]
emission wavelengths of 370 and 460 nm, respectively. Cathepsin concentrations in the assay were 0.4 nM (CTSK) or 5 nM (CTSS, CTSB, and CTSL). The buffer was 100 mM Na2HPO4/NaH2PO4, 50 mM NaCl, 5 mM DTT, 0,1% Peg-6000, pH 6. For irreversible inhibitors, reaction data were fitted to the one-phase association formula in GraphPad Prism 9 software: Y=Y0 + (Plateau-Y0)*(1-exp(-K*X)) where in this case Y0 and Y represent fluorescence signal at times 0 and t, respectively, K represent the observed reaction rate kobs and X the inhibitor concentration. Inactivation rates at each inhibitor concentration were obtained by subtracting the inactivation observed in the control sample: kobs – kctrl. The maximal rate of inactivation (kinact) was obtained as the asymptote from equation Y = kinact*X/(Kiapp + X) where X is inhibitor concentration, Y is the observed inactivation rate for each X, and Kiapp is the apparent inhibition constant. Ki values were calculated from IC50 or from Kiapp using formulas Ki = Kiapp / (1 + Km/S) and IC50 = E0/2 + Kiapp, where Km stands for Michalis-Menten constant, S for substrate concentration and E0 for cathepsin concentration.
The highest inhibitor concentrations in the assay were 50 µM. Measurements were performed in several independent duplicates. Average values are presented with standard deviations. […]
µM) were pretreated with different concentrations of probes (GD32, GD36, GD37, or GD42)

Chain of CTSL (P07711 114-333): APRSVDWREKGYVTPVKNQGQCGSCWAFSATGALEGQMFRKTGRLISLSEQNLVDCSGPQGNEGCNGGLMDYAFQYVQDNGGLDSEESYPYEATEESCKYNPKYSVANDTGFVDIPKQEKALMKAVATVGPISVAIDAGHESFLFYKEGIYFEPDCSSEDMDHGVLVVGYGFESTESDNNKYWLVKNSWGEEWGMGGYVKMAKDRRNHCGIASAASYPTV

| effect of inhibitor preincubation on GD32-labeled CTSK band ([1]; inhibitor 5 µM, 2 h, then GD32 5 µM) | mode of inhibition (CTSL) | Ki (CTSL) | CTSK specificity of labeling ([1]; probe 5 µM, incubation up to 24 h) | Compound |
| --- | --- | --- | --- | --- |
| depletion of the CTSK‐specific band |  |  |  | C#CCNC(=O)[C@H](CC(C)C)N[C@@H](c1ccc(-c2ccc(S(=O)(=O)CCNC(=O)OC(C)(C)C)cc2)cc1)C(F)(F)F [GD30] |
|  | Reversible | 20 µM | retained its CTSK specificity up to 24 h | C#CCNC(=O)[C@H](CC(C)C)N[C@@H](c1ccc(-c2ccc(S(=O)(=O)CCNC(=O)CCCCC[N+]3=C(/C=C/C=C/C=C4/N(C)c5ccc(S(=O)(=O)O)cc5C4(C)C)C(C)(C)c4cc(S(=O)(=O)O)ccc43)cc2)cc1)C(F)(F)F [GD32] |
|  | Reversible | 1.2 µM |  | CC(C)C[C@H](N[C@@H](c1ccc(-c2ccc(S(=O)(=O)CCNC(=O)CCCCC[N+]3=C(/C=C/C=C/C=C4/N(C)c5ccc(S(=O)(=O)O)cc5C4(C)C)C(C)(C)c4cc(S(=O)(=O)O)ccc43)cc2)cc1)C(F)(F)F)C(=O)NC1(C#N)CC1 [GD37] |
